From patent US9133183B2, “Imidazolidinones and analogs exhibiting anti-cancer and anti-proliferative activities” (Deciphera Pharmaceuticals, LLC, priority 2013, dated 2015)
Like-named read-outs stand apart in the source and are kept apart here.

Tests used:
[1] = molecular target: unphosphorylated c-FMS kinase (uFMS, Seq. ID no. 1) (Homo sapiens (Human), UniProt P07333); test: uFMS kinase assay (ADP production coupled to pyruvate kinase/lactate dehydrogenase); assay type: biochemical; conditions: enzymatic assay, ATP 500 μM
Protocol: uFMS kinase (Seq. ID No. 1) Assay
In this assay, the oxidation of NADH (thus the decrease at A340 nm) was continuously monitored spectrophometrically. The reaction mixture (100 μL) contained FMS (purchased from Millipore) (10 nM), polyE4Y (1 mg/mL), MgCl2 (10 mM), pyruvate kinase (4 units), lactate dehydrogenase (0.7 units), phosphoenol pyruvate (1 mM), NADH (0.28 mM) and ATP (500 μM) in 90 mM Tris buffer containing 0.2% octyl-glucoside and 1% DMSO, pH 7.5. The inhibition reaction was started by mixing serial diluted test compound with the above reaction mixture. The absorption at 340 nm was monitored continuously for 4 hours at 30° C. on Synergy 2 plate reader. The reaction rate was calculated using the 3 to 4 h time frame. Percent inhibition was obtained by comparison of reaction rate with that of a control (i.e., in the absence of test compound). IC50 values were calculated from a series of percent inhibition values determined at a range of inhibitor concentrations using software routines as implemented in the GraphPad Prism software package.
uFMS Kinase Sequence (Y538-End) Used for Screening (Seq. ID No. 1)

M-NFS-60 cells = test: M-NFS-60 cell proliferation assay (resazurin); assay type: cell-based; conditions: 67 h incubation
Protocol: M-NFS-60 cells (catalog #CRL-1838) were obtained from the American Type Culture Collection (ATCC, Manassas, Va.). Briefly, cells were grown in suspension in RPMI 1640 medium supplemented with 10% characterized fetal bovine serum (Invitrogen, Carlsbad, Calif.), 0.05 mM 2-mercaptoethanol, and 20 ng/mL mouse recombinant macrophage colony stimulating factor (M-CSF) at 37° C., 5% CO2, and 95% humidity. Cells were allowed to expand until reaching saturation at which point they were subcultured or harvested for assay use.
M-NFS-60 Cell Proliferation Assay
A serial dilution of test compound was dispensed into a 384-well black clear bottom plate (Corning, Corning, N.Y.). Two thousand five hundred cells were added per well in 50 μL complete growth medium. Plates were incubated for 67 h at 37° C., 5% CO2, and 95% humidity. At the end of the incubation period 10 μL of a 440 μM solution of resazurin (Sigma, St. Louis, Mo.) in PBS was added to each well and incubated for an additional 5 h at 37° C., 5% CO2, and 95% humidity. Plates were read on a Synergy2 reader (Biotek, Winooski, Vt.) using an excitation of 540 nm and an emission of 600 nm. IC50 values were calculated from a series of percent inhibition values determined at a range of inhibitor concentrations using software routines as implemented in the GraphPad Prism software package.

osteoclast precursors = test: Osteoclast tartrate-resistant acid phosphatase assay; assay type: cell-based; conditions: Osteoclast, 7-14 days, RANKL and M-CSF
Protocol: Osteoclast Tartrate-Resistant Acid Phosphatase Assay
A serial dilution of test compound was dispensed into a 384-well black clear bottom plate (Nalge Nunc International, Rochester, N.Y.). Compound was diluted by the addition of DMEM media supplemented with 10% characterized fetal bovine serum (Invitrogen, Carlsbad, Calif.). Diluted compound was transferred to a 384-well black clear bottom plate. Two-thousand five hundred osteoclast precursors (Lonza, Walkersville, Md.) were added per well in growth media containing Receptor Activator of Nuclear Factor Kappa-beta ligand (RANKL) and M-CSF (R&D Systems, Minneapolis, Minn.). Plates were incubated for 7-14 days at 37 degrees Celsius, 5% CO2, and 95% humidity to allow differentiation of osteoclast precursors. At the end of the incubation period, 10 μL of supernatant from each well was transferred to a clear 384-well plate. Tartrate-resistant acid phosphatase activity in the supernatant samples was determined using an acid phosphatase assay kit (Sigma, St. Louis, Mo.). Absorbance was measured at 550 nm using a plate reader. Data was analyzed using Prism software (Graphpad, San Diego, Calif.) to calculate IC50 values.

[2] = molecular target: unphosphorylated c-KIT kinase (uKIT, Seq. ID no. 2) (Homo sapiens (Human), UniProt P10721); test: uKit kinase assay (coupled pyruvate kinase/lactate dehydrogenase); assay type: biochemical; conditions: enzymatic assay, ATP 2000 μM
Protocol: uKit Kinase (Seq. ID No. 2) Assay
Activity of unphosphorylated c-KIT kinase (uKIT, Seq. ID no. 2) was determined by following the production of ADP from the KIT kinase reaction with ATP and poly E4Y as substrates through coupling with the pyruvate kinase/lactate dehydrogenase system (e.g., Schindler et al. Science (2000) 289: 1938-1942). In this assay, the oxidation of NADH (thus the decrease at A340 nm) was continuously monitored spectrophometrically. The reaction mixture (100 μl) contained unphosphorylated KIT (12 nM), polyE4Y (1 mg/mL), MgCl2 (10 mM), pyruvate kinase (4 units), lactate dehydrogenase (0.7 units), phosphoenol pyruvate (1 mM), and NADH (0.28 mM) and ATP (2000 μM) in 90 mM Tris buffer containing 0.2% octyl-glucoside and 1% DMSO, pH 7.5. The inhibition reaction was started by mixing serial diluted test compound with the above reaction mixture. The absorption at 340 nm was monitored continuously for 4 hours at 30° C. on Synergy 2 plate reader (BioTech). Reaction rates around 3 to 4 h time frame were used to calculate % inhibitions, from which IC50 values were generated.
uKit with N-Terminal GST Fusion Used for Screening (Seq ID No. 2)

unphosphorylated c-FMS kinase (uFMS, Seq. ID no. 1), sequence (P07333 538-972): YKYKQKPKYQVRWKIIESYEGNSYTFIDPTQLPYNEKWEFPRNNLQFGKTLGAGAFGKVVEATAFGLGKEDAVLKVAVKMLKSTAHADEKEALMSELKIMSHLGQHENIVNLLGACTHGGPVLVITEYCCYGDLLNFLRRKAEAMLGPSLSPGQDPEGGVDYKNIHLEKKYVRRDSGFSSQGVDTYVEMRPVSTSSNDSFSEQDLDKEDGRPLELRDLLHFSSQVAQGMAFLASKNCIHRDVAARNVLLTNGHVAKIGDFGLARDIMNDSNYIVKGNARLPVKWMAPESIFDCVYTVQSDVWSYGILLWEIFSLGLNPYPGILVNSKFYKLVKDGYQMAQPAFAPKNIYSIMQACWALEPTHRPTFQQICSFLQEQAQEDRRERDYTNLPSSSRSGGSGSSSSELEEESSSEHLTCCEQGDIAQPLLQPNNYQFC
unphosphorylated c-KIT kinase (uKIT, Seq. ID no. 2), sequence (P10721 other isoform, or with tags, fused parts or gaps): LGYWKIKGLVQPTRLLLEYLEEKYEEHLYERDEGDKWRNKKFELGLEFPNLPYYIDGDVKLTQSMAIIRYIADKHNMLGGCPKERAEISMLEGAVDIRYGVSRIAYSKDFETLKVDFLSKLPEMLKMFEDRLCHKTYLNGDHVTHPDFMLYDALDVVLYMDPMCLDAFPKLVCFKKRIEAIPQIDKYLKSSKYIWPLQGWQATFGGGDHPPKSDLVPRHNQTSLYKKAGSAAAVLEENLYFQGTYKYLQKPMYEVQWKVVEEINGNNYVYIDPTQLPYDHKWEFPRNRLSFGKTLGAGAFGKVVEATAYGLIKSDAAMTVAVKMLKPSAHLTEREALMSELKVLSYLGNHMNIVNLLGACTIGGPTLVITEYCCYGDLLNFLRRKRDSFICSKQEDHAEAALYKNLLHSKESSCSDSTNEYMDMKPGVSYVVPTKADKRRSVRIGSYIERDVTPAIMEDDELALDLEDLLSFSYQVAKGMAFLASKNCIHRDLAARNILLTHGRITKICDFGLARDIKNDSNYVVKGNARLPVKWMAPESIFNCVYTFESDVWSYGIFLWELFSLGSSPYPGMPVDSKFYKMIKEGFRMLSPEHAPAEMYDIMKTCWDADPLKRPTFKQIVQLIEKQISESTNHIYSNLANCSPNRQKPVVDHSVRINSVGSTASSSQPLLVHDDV

SMILES | IC50 ([1]; read-out: uFMS) [nM] | IC50 (osteoclast precursors) [nM] | IC50 [2] [nM] | IC50 (M-NFS-60 cells) [nM] | IC50 ([1]; uFMS) [nM]
[2H]C([2H])([2H])n1cc(-c2cc(Oc3ccc(NC(=O)N4CCN(C5CCOCC5)C4=O)nc3)ccn2)cn1 [Example 6, 2-oxo-3-(tetrahydro-2H-pyran-4-yl)-N-(5-((2-(1-(trideuteromethyl)-1H-pyrazol-4-yl)pyridin-4-yl)oxy)pyridin-2-yl)imidazolidine-1-carboxamide] | 10 to 100 | – | – | 10 to 100 | –
Cn1cc(-c2cc(Oc3ccc(NC(=O)N4CCN(C5CCOC(C)(C)C5)C4=O)nc3)ccn2)cn1 (centres unmarked) [Example 13, 3-(2,2-dimethyltetrahydro-2H-pyran-4-yl)-N-(5-((2-(1-methyl-1H-pyrazol-4-yl)pyridin-4-yl)oxy)pyridin-2-yl)-2-oxoimidazolidine-1-carboxamide] | 10 to 100 | 10 to 100 | – | 100 to 1000 | –
COC1(CCN2CCN(C(=O)Nc3ccc(Oc4ccnc(-c5cnn(C)c5)c4)cn3)C2=O)CC1 [Example 17, 3-(2-(1-methoxycyclopropyl)ethyl)-N-(5-((2-(1-methyl-1H-pyrazol-4-yl)pyridin-4-yl)oxy)pyridin-2-yl)-2-oxoimidazolidine-1-carboxamide] | – | 10 to 100 | – | 10 to 100 | 10 to 100
COC[C@H](C)N1CCN(C(=O)Nc2ccc(Oc3ccnc(-c4cnn(C)c4)c3)c(C)n2)C1=O [Example 38, (S)-3-(1-methoxypropan-2-yl)-N-(6-methyl-5-((2-(1-methyl-1H-pyrazol-4-yl)pyridin-4-yl)oxy)pyridin-2-yl)-2-oxoimidazolidine-1-carboxamide] | – | < 10 | < 10 | 10 to 100 | 10 to 100
CC1CN(C(=O)Nc2ccc(Oc3ccnc(-c4cnn(C)c4)c3)cn2)C(=O)N1C1CCOCC1 (centres unmarked) [Example 40, 4-methyl-N-(5-((2-(1-methyl-1H-pyrazol-4-yl)pyridin-4-yl)oxy)pyridin-2-yl)-2-oxo-3-(tetrahydro-2H-pyran-4-yl)imidazolidine-1-carboxamide] | < 10 | – | 10 to 100 | 10 to 100 | –
COCCN1CCN(C(=O)Nc2ccc(Oc3ccnc(-c4cnc(C)s4)c3)cn2)C1=O [Example 62, 3-(2-methoxyethyl)-N-(5-((2-(2-methylthiazol-5-yl)pyridin-4-yl)oxy)pyridin-2-yl)-2-oxoimidazolidine-1-carboxamide] | 100 to 1000 | 100 to 1000 | 100 to 1000 | 100 to 1000 | –
COCCN1CCN(C(=O)Nc2cc(F)c(Oc3ccnc(-c4cnn(C)c4)c3)cc2F)C1=O [Example 98, N-(2,5-difluoro-4-((2-(1-methyl-1H-pyrazol-4-yl)pyridin-4-yl)oxy)phenyl)-3-(2-methoxyethyl)-2-oxoimidazolidine-1-carboxamide] | 100 to 1000 | 10 to 100 | – | 100 to 1000 | –
COC1(CCN2CCN(C(=O)Nc3cc(Cl)c(Oc4ccnc(-c5cnn(C)c5)c4)cc3F)C2=O)CC1 [Example 99, N-(5-chloro-2-fluoro-4-((2-(1-methyl-1H-pyrazol-4-yl)pyridin-4-yl)oxy)phenyl)-3-(2-(1-methoxycyclopropyl)ethyl)-2-oxoimidazolidine-1-carboxamide] | 10 to 100 | 10 to 100 | – | 10 to 100 | –

Further lines, with some results ahead:

IC50 ([1]; read-out: uFMS) [nM] | IC50 (osteoclast precursors) [nM] | IC50 [2] [nM] | SMILES | IC50 (M-NFS-60 cells) [nM] | IC50 ([1]; uFMS) [nM]
100 to 1000 | > 1000 | > 1000 | CCc1nc(NC(=O)N2CCN(C3CCOCC3)C2=O)ccc1Oc1ccnc(-c2ccc(C)nc2)c1 [Example 63, N-(6-ethyl-5-((6′-methyl-[2,3′-bipyridin]-4-yl)oxy)pyridin-2-yl)-2-oxo-3-(tetrahydro-2H-pyran-4-yl)imidazolidine-1-carboxamide] | > 1000 | –
100 to 1000 | > 1000 | > 1000 | CCc1nc(NC(=O)N2CCN(C3CCOCC3)C2=O)ccc1Oc1ccnc(-c2ccnc(C)c2)c1 [Example 64, N-(6-ethyl-5-((2′-methyl-[2,4′-bipyridin]-4-yl)oxy)pyridin-2-yl)-2-oxo-3-(tetrahydro-2H-pyran-4-yl)imidazolidine-1-carboxamide] | > 1000 | –
10 to 100 | 10 to 100 | – | Cc1c(Oc2ccnc(-c3cnn(C)c3)c2)ccc(NC(=O)N2CCN(C3CCOCC3)C2=O)c1F [Example 93, N-(2-fluoro-3-methyl-4-((2-(1-methyl-1H-pyrazol-4-yl)pyridin-4-yl)oxy)phenyl)-2-oxo-3-(tetrahydro-2H-pyran-4-yl)imidazolidine-1-carboxamide] | 100 to 1000 | –
10 to 100 | 10 to 100 | – | Cn1cc(-c2cc(Oc3ccc(NC(=O)N4CCN(C5CCOCC5)C4=O)c(F)c3)ccn2)cn1 [Example 95, N-(2-fluoro-4-((2-(1-methyl-1H-pyrazol-4-yl)pyridin-4-yl)oxy)phenyl)-2-oxo-3-(tetrahydro-2H-pyran-4-yl)imidazolidine-1-carboxamide] | 10 to 100 | –
10 to 100 | 10 to 100 | – | COCCN1CCN(C(=O)Nc2cc(Cl)c(Oc3ccnc(-c4cnn(C)c4)c3)cc2F)C1=O [Example 100, N-(5-chloro-2-fluoro-4-((2-(1-methyl-1H-pyrazol-4-yl)pyridin-4-yl)oxy)phenyl)-3-(2-methoxyethyl)-2-oxoimidazolidine-1-carboxamide] | 100 to 1000 | –
10 to 100 | 100 to 1000 | – | Cn1cc(-c2cc(Oc3ccc(NC(=O)N4CCN(C5CCOCC5)C4=O)cc3F)ccn2)cn1 [Example 102, N-(3-fluoro-4-((2-(1-methyl-1H-pyrazol-4-yl)pyridin-4-yl)oxy)phenyl)-2-oxo-3-(tetrahydro-2H-pyran-4-yl)imidazolidine-1-carboxamide] | > 1000 | –
< 10 | – | 10 to 100 | Cn1cc(-c2cc(Oc3ccc(NC(=O)N4CCN(C5CCOCC5)C4=O)c(F)c3Cl)ccn2)cn1 [Example 113, N-(3-chloro-2-fluoro-4-((2-(1-methyl-1H-pyrazol-4-yl)pyridin-4-yl)oxy)phenyl)-2-oxo-3-(tetrahydro-2H-pyran-4-yl)imidazolidine-1-carboxamide] | 100 to 1000 | –
> 1000 | – | > 1000 | N#CCC(=O)Nc1cc(Oc2cc(F)c(NC(=O)N3CCN(C4CCOCC4)C3=O)cc2Cl)ccn1 [Example 114, N-(5-chloro-4-((2-(2-cyanoacetamido)pyridin-4-yl)oxy)-2-fluorophenyl)-2-oxo-3-(tetrahydro-2H-pyran-4-yl)imidazolidine-1-carboxamide] | – | –
